Experimental data from patent US20230109708A1, “Cellular Uptake” (Axcess (UK) Ltd, priority 2020, published 2023).
Like-named read-outs stand apart in the source and are kept apart here.

How the values were obtained:
Caco-2 cells [1] = test: Uptake of FITC-albumin or FITC-Casein with chenodeoxycholate, fluorescence microscope score (Example 6); assay type: cell-based; conditions: FITC-labelled protein 100 ug/ml with chenodeoxycholate
Text: The experiment was repeated on two separate occasions on different days.

Caco-2 cells [2] = conditions: for enhancement of uptake of the protein (FITC-albumin): chenodeoxycholate 0.5 mg/ml, EDTA or orthophenanthroline 5 mg/ml, alone or in combination
Caco-2 cells [3] = test: FITC-albumin uptake with chenodeoxycholate and EDTA, DTPA or EGTA, fluorescence microscope score (Example 9); assay type: cell-based; conditions: 30 minutes; for enhancement of uptake over and above that seen with chenodeoxycholate alone: agent added at 1 mg/ml to chenodeoxycholate; for fluorescence score, uptake of FITC-albumin: EDTA, DTPA or EGTA 1 mg/ml where present
Caco-2 cells [4] = test: FITC-albumin uptake after chlorpromazine preincubation, fluorescence microscope score (Example 4); assay type: cell-based; set-up: fluorescence score, uptake of FITC-albumin: key to the marks not given beside the values; conditions: for effect of preincubation with inhibitor on chenodeoxycholate-stimulated uptake of FITC-albumin: preincubation ten minutes, amiloride and nystatin in similar experiments
Caco-2 cells [5] = tested on: Caco-2 cells; set-up: key to the marks not given beside the values; conditions: twenty minutes, PG 2:1 wt:wt where present
Caco-2 cells [6] = test: FITC-hGH uptake with chenodeoxycholate, cells in suspension, plate reader (Example 13); assay type: cell-based; conditions: FITC-hGH 100 ug/ml; chenodeoxycholate at different concentrations; 15 minutes
Experimental: 1 ml of FITC-hGH alone (concentration 100 ug/ml) or FITC-hGH containing chenodeoxycholate at different concentrations were then added.

Caco-2 cells [7] = test: Uptake of FITC-insulin into Caco-2 cells, confocal microscope (Example 1); assay type: cell-based; conditions: for uptake of FITC-insulin into cells (photomicrographs): FITC-insulin 100 ug/ml alone or with sodium chenodeoxycholate 1 or 2 mg/ml, 37° C. half an hour
Experimental: The supernatant was then removed, replaced with 0.5 ml of 4% paraformaldehyde solution, and incubated at room temperature for 15 minutes. The paraformaldehyde was then removed, the wells were washed three times with phosphate-buffered saline, and the coverslips then treated with mounting medium and viewed under a confocal microscope. Images are set out in FIG. 1.

Caco-2 cells [8] = tested on: Caco-2 cells
Caco-2 cells [9] = conditions: chenodeoxycholate and EDTA alone or in combination at 1 mg/ml; 15 minutes; cells in suspension
IEC6 cell line = conditions: chenodeoxycholate 0.5 mg/ml; different concentrations of EDTA; 15 minutes
[10] = column Concentration of Chenodeoxycholate 0.5 mg/ml, sample alone, no preincubation
[11] = column Concentration of Chenodeoxycholate 1.0 mg/ml, sample alone, no preincubation
[12] = column Concentration of Chenodeoxycholate 1.5 mg/ml, sample alone, no preincubation

Compound: Casein
- extent of chenodeoxycholate-mediated uptake of the protein (Caco-2 cells [1]): uptake of a similar extent

Compound: c1cnc2c(c1)ccc1cccnc12 [o-phenanthroline]
- enhancement of uptake of the protein (FITC-albumin) (Caco-2 cells [2]): does not have this effect

Compound: O=C(O)CN(CCN(CC(=O)O)CC(=O)O)CCN(CC(=O)O)CC(=O)O [DTPA]
- enhancement of uptake over and above that seen with chenodeoxycholate alone (Caco-2 cells [3]): not

Compound: CN(C)CCCN1c2ccccc2Sc2ccc(Cl)cc21 [Chlorpromazine, chlorpromazine]
- fluorescence score, uptake of FITC-albumin (Caco-2 cells [4]; 5000 ug/mL): ++
- effect of preincubation with inhibitor on chenodeoxycholate-stimulated uptake of FITC-albumin (Caco-2 cells [4]): concentration-dependent inhibition of uptake

Compound: C[C@H](CCC(=O)O)[C@H]1CC[C@H]2[C@@H]3[C@H](O)C[C@@H]4C[C@H](O)CC[C@]4(C)[C@H]3CC[C@]12C [Cheno alone, sodium chenodeoxycholate]
- fluorescence score, uptake of FITC-albumin (Caco-2 cells [5]; Concentration of Bile Salt 1.0 mg/ml): ++
- fluorescence score, uptake of FITC-albumin (Caco-2 cells [5]; Concentration of Bile Salt 1.5 mg/ml): +++
- uptake of hGH (FITC-hGH) into cells (Caco-2 cells [6]): enhances the uptake of hGH into cells in a dose-dependent manner
- fluorescence score, uptake of FITC-albumin (Caco-2 cells [3]; Chenodeoxycholate 0.5 mg/ml): +
- fluorescence score, uptake of FITC-albumin (Caco-2 cells [3]; Chenodeoxycholate 1 mg/ml): ++
- uptake of FITC-insulin into cells (photomicrographs) (Caco-2 cells [7]): uptake is enhanced
- fluorescent material in vacuoles within the cells (Caco-2 cells [7]; FITC-insulin 100 ug/ml, higher concentration of the bile salt (2 mg/ml)): clearly being seen in vacuoles within the cells
- fluorescence score, uptake of FITC-albumin (Caco-2 cells [4]; Cheno 1.0 mg/ml, Chlorpromazine 0 mg/ml): +++
- fluorescence score, uptake of FITC-albumin (Caco-2 cells [4]; Cheno 1.5 mg/ml, Chlorpromazine 0 mg/ml): ++
- fluorescence score, uptake of FITC-albumin (Caco-2 cells [2]; Chenodeoxycholate 0.5 mg/ml, EDTA or orthophenanthroline 5 mg/ml where present, twenty-five minutes): +
- enhancement of uptake of the protein (FITC-albumin) (Caco-2 cells [2]): neither chenodeoxycholate nor EDTA were able to enhance uptake
- fluorescence score, uptake of FITC-albumin (Caco-2 cells [8]; [10]): +
- fluorescence score, uptake of FITC-albumin (Caco-2 cells [8]; [11]): +++
- fluorescence score, uptake of FITC-albumin (Caco-2 cells [8]; [12]): +++
- enhancement of uptake of FITC-albumin (Caco-2 cells [9]): too low to enhance uptake

Compound: O=C(O)CN(CCN(CC(=O)O)CC(=O)O)CC(=O)O [EDTA]
- enhancement of uptake of BSA by chenodeoxycholate in IEC6 cells (IEC6 cell line): augmented by EDTA in a dose-dependent fashion

Compound: C[C@@H]1[C@H](O)[C@@H](C)/C=C/C=C/CC/C=C/C=C/C=C/C=C/C(O[C@H]2O[C@H](C)[C@@H](O)[C@H](N)[C@@H]2O)CC2O[C@](O)(CC(O)C(O)CCC(O)CC(O)CC(O)CC(=O)O[C@H]1C)CC(O)C2C(=O)O (some centres unmarked) [nystatin]
- effect of preincubation with inhibitor on chenodeoxycholate-stimulated uptake of FITC-albumin (Caco-2 cells [4]): no reduction in uptake

Compound: N=C(N)NC(=O)c1nc(Cl)c(N)nc1N [amiloride]
- effect of preincubation with inhibitor on chenodeoxycholate-stimulated uptake of FITC-albumin (Caco-2 cells [4]): no reduction in uptake

Compound: C[C@H](CCC(=O)O)[C@H]1CC[C@H]2[C@@H]3[C@@H](O)C[C@@H]4C[C@H](O)CC[C@]4(C)[C@H]3CC[C@]12C [Urso, sodium ursodeoxycholate]
- fluorescence score, uptake of FITC-albumin (Caco-2 cells [8]; Urso preincubation 0.1 mg/ml, Chenodeoxycholate 0.5 mg/ml): −
- fluorescence score, uptake of FITC-albumin (Caco-2 cells [8]; Urso preincubation 0.1 mg/ml, Chenodeoxycholate 1.0 mg/ml): ++
- fluorescence score, uptake of FITC-albumin (Caco-2 cells [8]; Urso preincubation 0.1 mg/ml, Chenodeoxycholate 1.5 mg/ml): ++
- fluorescence score, uptake of FITC-albumin (Caco-2 cells [8]; Urso preincubation 0.5 mg/ml, Chenodeoxycholate 0.5 mg/ml): −
- fluorescence score, uptake of FITC-albumin (Caco-2 cells [8]; Urso preincubation 0.5 mg/ml, Chenodeoxycholate 1.0 mg/ml): +
- fluorescence score, uptake of FITC-albumin (Caco-2 cells [8]; Urso preincubation 0.5 mg/ml, Chenodeoxycholate 1.5 mg/ml): ++
- fluorescence score, uptake of FITC-albumin (Caco-2 cells [8]; [10]): −
- fluorescence score, uptake of FITC-albumin (Caco-2 cells [8]; [11]): −
- fluorescence score, uptake of FITC-albumin (Caco-2 cells [8]; [12]): −
- effect of preincubation on chenodeoxycholate-stimulated uptake of FITC-albumin (Caco-2 cells [8]; preincubation ten minutes): concentration-dependent inhibition of uptake

Compound: insulin: FITC-insulin, fluorescent labelled protein cargo
- uptake of FITC-insulin into cells (photomicrographs) (Caco-2 cells [7]): very little uptake

Compound: O=C(O)CN(CCOCCOCCN(CC(=O)O)CC(=O)O)CC(=O)O [EGTA]
- enhancement of uptake over and above that seen with chenodeoxycholate alone (Caco-2 cells [3]): not
